According to PubChem BioAssay AID1963450 (Molecular Pharmacology Branch, DTP, NCI, 2024):

Tested on: 556581-035-R-J1-PDC complex spheroid growth
Test: Anticancer human tumor 556581-035-R-J1-PDC patient-derived ovarian carcinoma cell line growth inhibition [Asc]
Settings: for IC50: curve of first compound; for viability, T/C: stronger effect = lower value
Outline: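 Spheroid model: tumor line + HUVEC + hMSC. Single agents and combinations; top conc. at/near clinical Cmax (10 microM if undetermined), half-log dilutions. DMSO stocks at 800-fold test concentration.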

[1] = second compound 0.1 µM, first compound 0.00316 µM
[2] = second compound 0.1 µM, first compound 0.01 µM
[3] = second compound 0.1 µM, first compound 0.0316 µM
[4] = second compound 0.1 µM, first compound 0.1 µM
[5] = second compound 0.1 µM, first compound 0.316 µM
[6] = second compound 0.1 µM, first compound 1 µM
[7] = second compound 0.316 µM, first compound 0.00316 µM
[8] = second compound 0.316 µM, first compound 0.01 µM
[9] = second compound 0.316 µM, first compound 0.0316 µM
[10] = second compound 0.316 µM, first compound 0.1 µM
[11] = second compound 0.316 µM, first compound 0.316 µM
[12] = second compound 0.316 µM, first compound 1 µM
[13] = second compound 1 µM, first compound 0.00316 µM
[14] = second compound 1 µM, first compound 0.01 µM
[15] = second compound 1 µM, first compound 0.0316 µM
[16] = second compound 1 µM, first compound 0.1 µM
[17] = second compound 1 µM, first compound 0.316 µM
[18] = second compound 1 µM, first compound 1 µM
[19] = second compound 3.16 µM, first compound 0.00316 µM
[20] = second compound 3.16 µM, first compound 0.01 µM
[21] = second compound 3.16 µM, first compound 0.0316 µM
[22] = second compound 3.16 µM, first compound 0.1 µM
[23] = second compound 3.16 µM, first compound 0.316 µM
[24] = second compound 3.16 µM, first compound 1 µM
[25] = second compound 10 µM, first compound 0.00316 µM
[26] = second compound 10 µM, first compound 0.01 µM
[27] = second compound 10 µM, first compound 0.0316 µM
[28] = second compound 10 µM, first compound 0.1 µM
[29] = second compound 10 µM, first compound 0.316 µM
[30] = second compound 10 µM, first compound 1 µM
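Note: spheroids exposed to agents for 7 days before viability read.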

SMILES	IC50 (second compound 0.1 µM) [nM]	IC50 (second compound 0.316 µM) [nM]	IC50 (second compound 1 µM) [nM]	IC50 (second compound 3.16 µM) [nM]	IC50 (second compound 10 µM) [nM]	viability, T/C [1] [%]	viability, T/C [2] [%]	viability, T/C [3] [%]	viability, T/C [4] [%]	viability, T/C [5] [%]	viability, T/C [6] [%]	viability, T/C [7] [%]	viability, T/C [9] [%]	viability, T/C [10] [%]	viability, T/C [15] [%]	viability, T/C [16] [%]	viability, T/C [21] [%]	viability, T/C [22] [%]	viability, T/C [27] [%]	viability, T/C [28] [%]	other results
CCN1CCN(Cc2ccc(Nc3ncc(F)c(-c4cc(F)c5nc(C)n(C(C)C)c5c4)n3)nc2)CC1 + Cc1c(S(C)(=O)=O)c(-c2cc(F)cc(N3CCN(c4ccc(NS(=O)(=O)c5ccc(NC(CCN6CCC(C(=O)OCCCP(=O)(O)O)CC6)CSc6ccccc6)c(S(=O)(=O)C(F)(F)F)c5)cc4)CC3)c2)c(-c2ccc(Cl)cc2)n1C(C)C	> 1000	> 1000	556	782	490	99.3	75.3	88.9	78.1	87.8	61	83.7	86.5	83.5	86.6	77.3	90.1	66.5	79.9	64	viability, T/C [8]: 77.5%; viability, T/C [11]: 74.7%; viability, T/C [12]: 57.5%; viability, T/C [13]: 78.2%; viability, T/C [14]: 89.6%; viability, T/C [17]: 62%; viability, T/C [18]: 37.9%; viability, T/C [19]: 69.6%; viability, T/C [20]: 86.1%; viability, T/C [23]: 67.6%; viability, T/C [24]: 45.5%; viability, T/C [25]: 68.9%; viability, T/C [26]: 69.7%; viability, T/C [29]: 70.6%; viability, T/C [30]: 16.7%
Cn1ncnc1[C@H]1c2n[nH]c(=O)c3cc(F)cc(c23)N[C@@H]1c1ccc(F)cc1 + Cc1c(S(C)(=O)=O)c(-c2cc(F)cc(N3CCN(c4ccc(NS(=O)(=O)c5ccc(NC(CCN6CCC(C(=O)OCCCP(=O)(O)O)CC6)CSc6ccccc6)c(S(=O)(=O)C(F)(F)F)c5)cc4)CC3)c2)c(-c2ccc(Cl)cc2)n1C(C)C	> 100	> 100	> 100	> 100	> 100	94.8	78	84.4	77.2			72	79.9	84	73.7	72.1	64.4	81.8	62.7	64.9	viability, T/C (second compound 0.1 µM, first compound 0.000316 µM): 67.5%; viability, T/C (second compound 0.1 µM, first compound 0.001 µM): 88%; viability, T/C (second compound 0.316 µM, first compound 0.000316 µM): 84.9%; viability, T/C (second compound 0.316 µM, first compound 0.001 µM): 81.1%; viability, T/C [8]: 66.6%; viability, T/C (second compound 1 µM, first compound 0.000316 µM): 79.5%; viability, T/C (second compound 1 µM, first compound 0.001 µM): 84.2%; viability, T/C [13]: 78.3%; viability, T/C [14]: 79.8%; viability, T/C (second compound 3.16 µM, first compound 0.000316 µM): 74.3%; viability, T/C (second compound 3.16 µM, first compound 0.001 µM): 73.2%; viability, T/C [19]: 70.2%; viability, T/C [20]: 72.9%; viability, T/C (second compound 10 µM, first compound 0.000316 µM): 86.4%; viability, T/C (second compound 10 µM, first compound 0.001 µM): 69.2%; viability, T/C [25]: 66.5%; viability, T/C [26]: 64.5%
O=C(c1cc(Cc2n[nH]c(=O)c3ccccc23)ccc1F)N1CCN(C(=O)C2CC2)CC1 + Cc1c(S(C)(=O)=O)c(-c2cc(F)cc(N3CCN(c4ccc(NS(=O)(=O)c5ccc(NC(CCN6CCC(C(=O)OCCCP(=O)(O)O)CC6)CSc6ccccc6)c(S(=O)(=O)C(F)(F)F)c5)cc4)CC3)c2)c(-c2ccc(Cl)cc2)n1C(C)C	> 10000	> 10000	> 10000	> 10000	> 10000			87.3	81.3	92.9	96		73.6	90.2	70.8	69	63.4	75.6	68	80.7	viability, T/C (second compound 0.1 µM, first compound 3.16 µM): 82.3%; viability, T/C (second compound 0.1 µM, first compound 10 µM): 77.2%; viability, T/C [11]: 73.3%; viability, T/C [12]: 89.8%; viability, T/C (second compound 0.316 µM, first compound 3.16 µM): 83.4%; viability, T/C (second compound 0.316 µM, first compound 10 µM): 66.8%; viability, T/C [17]: 73.4%; viability, T/C [18]: 78%; viability, T/C (second compound 1 µM, first compound 3.16 µM): 66.3%; viability, T/C (second compound 1 µM, first compound 10 µM): 66.4%; viability, T/C [23]: 67.6%; viability, T/C [24]: 65.8%; viability, T/C (second compound 3.16 µM, first compound 3.16 µM): 66.9%; viability, T/C (second compound 3.16 µM, first compound 10 µM): 57.9%; viability, T/C [29]: 60.6%; viability, T/C [30]: 54.2%; viability, T/C (second compound 10 µM, first compound 3.16 µM): 57.1%; viability, T/C (second compound 10 µM, first compound 10 µM): 77.5%
O=C(c1ccc(F)c(F)c1Nc1ccc(I)cc1F)N1CC(O)([C@@H]2CCCCN2)C1 + Cc1c(S(C)(=O)=O)c(-c2cc(F)cc(N3CCN(c4ccc(NS(=O)(=O)c5ccc(NC(CCN6CCC(C(=O)OCCCP(=O)(O)O)CC6)CSc6ccccc6)c(S(=O)(=O)C(F)(F)F)c5)cc4)CC3)c2)c(-c2ccc(Cl)cc2)n1C(C)C	92.9	55.4	44	56.6	4.93	73	66.8	72.6	44.9	23.8	4.45	59.6	61.6	39.4	57.1	29.5	57.4	45.5	40.5	15.2	viability, T/C [8]: 58.8%; viability, T/C [11]: 21.6%; viability, T/C [12]: 25.9%; viability, T/C [13]: 70%; viability, T/C [14]: 73.7%; viability, T/C [17]: 8.66%; viability, T/C [18]: 1.82%; viability, T/C [19]: 67.7%; viability, T/C [20]: 54.5%; viability, T/C [23]: 22.3%; viability, T/C [24]: 4.54%; viability, T/C [25]: 49.6%; viability, T/C [26]: 51.9%; viability, T/C [29]: 38.4%; viability, T/C [30]: 16%
